Assay results taken from ChEMBL document CHEMBL3885861, “Open TG-GATES”.

Species: Rattus norvegicus
Assay: Open TG-GATES - Regimen: Daily Repeat
Format: toxicity, organism-based, Sprague-Dawley
Design: regimen Daily Repeat, gender Male, age 6 weeks
Settings: in vivo, po, 250 mg/kg, route gavage, dose level High; for APTT / Bas / Eos / Fbg / Hb / Ht / Lym / MCH / MCHC / MCV / Mono / Neu / PT / Plat / RBC / Ret / WBC: tissue Blood; for KIDNEY_L / KIDNEY_R / KIDNEY_TOTAL: tissue Kidney; for LIVER: tissue Liver; for A/G / ALP / ALT / AST / BUN / CRE / Ca / Cl / DBIL / GLC / IP / K / LDH / Na / PL / RALB / TBIL / TC / TG / TP / gamma-GTP: tissue Plasma

## CCSCC[C@H](N)C(=O)O [ETHIONINE]
72 h, time 3 day
  TERMINAL_BW: 209.1 g
  APTT: 27.3 s
  Bas: 0%
  Eos: 1%
  Fbg: 204.2 mg/dL
  Hb: 15.1 g/dL
  Ht: 43.9%
  Lym: 87%
  MCH: 21.5 pg
  MCHC: 34.3%
  MCV: 62.9 fL
  Mono: 2.4%
  Neu: 8.8%
  PT: 16.2 s
  Plat: 114.9 x10_4/uL
  RBC: 698.8 x10_4/ul
  Ret: 4%
  WBC: 108.9 x10_2/uL
  KIDNEY_L: 0.9 g
  KIDNEY_R: 0.9 g
  KIDNEY_TOTAL: 1.9 g
  LIVER: 8.7 g
  A/G: 1.9
  ALP: 1059.2 IU/L
  ALT: 42 IU/L
  AST: 73.2 IU/L
  BUN: 15.8 mg/dL
  CRE: 0.4 mg/dL
  Ca: 10.4 mg/dL
  Cl: 102 meq/L
  DBIL: 0.09 mg/dL
  GLC: 183.8 mg/dL
  IP: 8.3 mg/dL
  K: 3.8 meq/L
  LDH: 236.4 IU/L
  Na: 140 meq/L
  PL: 94 mg/dL
  RALB: 3.5 g/dL
  TBIL: 0.2 mg/dL
  TC: 36.6 mg/dL
  TG: 40.4 mg/dL
  TP: 5.5 g/dL
  gamma-GTP: 0.8 IU/L
[…], time 7 day
  TERMINAL_BW: 226 g
  APTT: 28 s
  Bas: 0%
  Eos: 0.4%
  Fbg: 210.4 mg/dL
  Hb: 15.1 g/dL
  Ht: 44.3%
  Lym: 83.4%
  MCH: 20.9 pg
  MCHC: 34%
  MCV: 61.6 fL
  Mono: 2.2%
  Neu: 13.6%
  PT: 15.5 s
  Plat: 87.8 x10_4/uL
  RBC: 720.4 x10_4/ul
  Ret: 1%
  WBC: 122.2 x10_2/uL
  KIDNEY_L: 1 g
  KIDNEY_R: 1 g
  KIDNEY_TOTAL: 2 g
  LIVER: 9.3 g
  A/G: 2
  ALP: 1237 IU/L
  ALT: 44 IU/L
  AST: 62.8 IU/L
  BUN: 16.6 mg/dL
  CRE: 0.4 mg/dL
  Ca: 10.4 mg/dL
  Cl: 105.2 meq/L
  DBIL: 0.1 mg/dL
  GLC: 178.4 mg/dL
  IP: 5.9 mg/dL
  K: 3.7 meq/L
  LDH: 214.2 IU/L
  Na: 141.8 meq/L
  PL: 118.2 mg/dL
  RALB: 3.5 g/dL
  TBIL: 0.2 mg/dL
  TC: 45.8 mg/dL
  TG: 76.4 mg/dL
  TP: 5.3 g/dL
  gamma-GTP: 1 IU/L
[…], time 14 day
  TERMINAL_BW: 268.3 g
  APTT: 26 s
  Bas: 0%
  Eos: 0.6%
  Fbg: 205.4 mg/dL
  Hb: 14.3 g/dL
  Ht: 42.2%
  Lym: 75.8%
  MCH: 19.9 pg
  MCHC: 34%
  MCV: 58.5 fL
  Mono: 2.6%
  Neu: 20.2%
  PT: 15.4 s
  Plat: 100.5 x10_4/uL
  RBC: 722.2 x10_4/ul
  Ret: 3.8%
  WBC: 133.6 x10_2/uL
  KIDNEY_L: 1.1 g
  KIDNEY_R: 1.1 g
  KIDNEY_TOTAL: 2.3 g
  LIVER: 10.5 g
  A/G: 1.9
  ALP: 959.2 IU/L
  ALT: 33.2 IU/L
  AST: 58 IU/L
  BUN: 18.8 mg/dL
  CRE: 0.4 mg/dL
  Ca: 10.2 mg/dL
  Cl: 103 meq/L
  DBIL: 0.1 mg/dL
  GLC: 189.8 mg/dL
  IP: 6.9 mg/dL
  K: 3.6 meq/L
  LDH: 196 IU/L
  Na: 142 meq/L
  PL: 135.8 mg/dL
  RALB: 3.5 g/dL
  TBIL: 0.2 mg/dL
  TC: 57.4 mg/dL
  TG: 80.2 mg/dL
  TP: 5.4 g/dL
  gamma-GTP: 0.8 IU/L
[…], time 28 day
  TERMINAL_BW: 314.2 g
  APTT: 27.8 s
  Bas: 0%
  Eos: 0.6%
  Fbg: 200.6 mg/dL
  Hb: 15.9 g/dL
  Ht: 45.4%
  Lym: 77%
  MCH: 19.4 pg
  MCHC: 35%
  MCV: 55.4 fL
  Mono: 2.2%
  Neu: 19.6%
  PT: 16.1 s
  Plat: 95.1 x10_4/uL
  RBC: 820.2 x10_4/ul
  Ret: 1.6%
  WBC: 91.7 x10_2/uL
  KIDNEY_L: 1.1 g
  KIDNEY_R: 1.1 g
  KIDNEY_TOTAL: 2.3 g
  LIVER: 11.6 g
  A/G: 1.9
  ALP: 934.8 IU/L
  ALT: 34 IU/L
  AST: 62.4 IU/L
  BUN: 19.2 mg/dL
  CRE: 0.5 mg/dL
  Ca: 10 mg/dL
  Cl: 105.2 meq/L
  DBIL: 0.1 mg/dL
  GLC: 177 mg/dL
  IP: 5.6 mg/dL
  K: 3.5 meq/L
  LDH: 271.6 IU/L
  Na: 143 meq/L
  PL: 126.4 mg/dL
  RALB: 3.8 g/dL
  TBIL: 0.2 mg/dL
  TC: 49.2 mg/dL
  TG: 101.4 mg/dL
  TP: 5.8 g/dL
  gamma-GTP: 1 IU/L
